{"source": "patent US20250228881A1", "about": "“COMPOSITION FOR PREVENTION OR TREATMENT OF MULTIPLE MYELOMA COMPRISING NOVEL T[…] AS ACTIVE INGREDIENT” (KBLUEBIO INC, priority 2021, published 2025)", "key": {"[1]": {"test_system": "normal hematopoietic stem cells", "test": "Progenitor colony formation of normal PBSC fraction on methylcellulose (toxicity to hematopoietic stem cells)", "format": "cell-based", "settings": "normal donor PBSC, 2 weeks, KBB-N2 up to 60 μM", "protocol": "G-CSF was subcutaneously injected into a normal donor to mobilize hematopoietic stem cells, and a peripheral blood stem cell (PBSC) fraction was extracted from the donor's peripheral blood by leukapheresis. The obtained normal PBSC fraction and KBB-N2 were cultured on methylcellulose for 2 weeks, and the cytotoxicity of KBB-N2 to hematopoietic stem cells was evaluated by counting the number of the formed erythroid progenitor colonies and leukocyte/megakaryocytic progenitor colonies."}, "[2]": {"test_system": "multiple myeloma cell lines", "test": "Co-treatment of multiple myeloma cell lines with KBB-N2 and lenalidomide (killing effect)", "format": "cell-based, Human", "settings": "co-treated with lenalidomide, compared with lenalidomide alone", "protocol": "Multiple myeloma cells IM-9 and RPMI 8226 (3×10^6 cells/mL) treated with KBB-N2 for 48 hours were washed with 1x PBS (phosphate-buffered saline, pH 7.4) and fixed with 70% ethanol. After washing several times with 1×PBS, 5 μL of Annexin V-FITC and 5 μL of PI (propidium iodine) (Sigma-Aldrich, St. Louis, MO) were added to 500 μL of 1×PBS containing the cells (1×10^6 cells/mL) suspended therein, followed by staining in a dark room at room temperature for 30 minutes. Then, 500 μL of 1× binding buffer was added thereto, and flow cytometry was performed using FACSCalibur (Becton Dickinson, Franklin Lakes, NJ, USA), followed by analysis using the CellQuest software (Becton Dickinson) program."}, "[3]": {"test_system": "human-derived multiple myeloma cell lines ARH77, U266, and RPMI 8226", "test": "Multiple myeloma mouse xenograft model, tail vein administration", "format": "in vivo", "settings": "xenograft mice", "protocol": "Using xenograft models obtained by injecting the same human-derived multiple myeloma cell lines ARH77, U266, and RPMI 8226 into mice, each of KBB-N2 was injected into the vein tail at 7 mg/Kg/day, and as a positive control, lenalidomide, which is currently widely used as a therapeutic agent for multiple myeloma in clinical practice, was injected into the vein tail at 1 mg/Kg/day."}, "RPMI 8226 cells": {"test_system": "RPMI 8226 cells", "test": "Quantitative RT-PCR array of 84 apoptosis-related genes after KBB-N2 treatment", "format": "cell-based, Human", "settings": "50 μM KBB-N2, 48 hours", "protocol": "To investigate the cell death mechanism induced by treatment with KBB-N2, changes in the expression of apoptosis-related genes in a multiple myeloma cell line were measured. 50 μM of KBB-N2 was added to multiple myeloma cells (million cells/mL), followed by 48 hours of culture. Then, total RNA was extracted and the expression levels of 84 apoptosis-related genes were analyzed using quantitative RT-PCR array (Cat #PAHS-012Z; Qiagen Seoul, Seoul, Korea). After treating the cells with 50 μM of KBB-N2, the cells were cultured for 48 hours, and total RNA was isolated from the RPMI 8226 cells using the RNAqueous total RNA isolation kit (Thermo Fisher Scientific). Contaminating genomic DNA in the extracted RNA was removed using an RNase-Free DNase set (Qiagen). Total RNA (5 ug) was reverse transcribed into cDNA in a reaction volume of 10 μL using the RT2 First Strand Kit (Qiagen). Next, 10 μL of cDNA was combined with each primer set of the human apoptosis-related RT2 Profiler PCR Array (Qiagen) according to the manufacturer's protocol. Amplification reactions were performed using the real-time polymerase chain reaction system CFX96 (Bio-Rad, Hercules, CA, USA) with automated baseline and threshold cycle detection. The relative expression of […] genes was normalized to five built-in housekeeping genes. Each group was analyzed by the web-based software GeneGlobe Data Analysis Center (Qiagen)."}}, "note": "“Also recorded” adds a separate entry of the source.", "data": [{"smiles": "CC(C)=CCC[C@](C)(O)[C@H]1CC[C@]2(C)[C@@H]1[C@H](O)C[C@@H]1[C@@]3(C)CC[C@H](O[C@@H]4O[C@H](CO)[C@@H](O)[C@H](O)[C@H]4O)C(C)(C)[C@@H]3CC[C@]12C", "note": "[KBB-N2]", "values": [{"measurement": "cytotoxicity to hematopoietic stem cells: number and morphology/formation of progenitor cell colonies", "setting": "[1]", "value": "not toxic to normal hematopoietic stem cells; also recorded: not significantly inhibited"}, {"measurement": "killing effect on co-treatment with lenalidomide", "setting": "[2]", "value": "killing effect was higher"}, {"measurement": "therapeutic effect for multiple myeloma", "setting": "[3]; KBB-N2 7 mg/Kg/day tail vein vs positive control lenalidomide 1 mg/Kg/day tail vein", "value": "therapeutic effect equal to or higher than that of traditional lenalidomide"}, {"measurement": "effect on multiple myeloma treatment in bone marrow biopsy after treatment", "setting": "[3]; bone marrow biopsy after treatment", "value": "effect of KBB-N2 on multiple myeloma treatment was also found"}, {"measurement": "overexpression of apoptosis-related gene APAF1", "setting": "RPMI 8226 cells", "value": "at least 2 fold"}, {"measurement": "overexpression of apoptosis-related gene BAD", "setting": "RPMI 8226 cells", "value": "at least 2 fold"}, {"measurement": "overexpression of apoptosis-related gene BCL2", "setting": "RPMI 8226 cells", "value": "at least 3 fold"}, {"measurement": "overexpression of apoptosis-related gene BCL2L1", "setting": "RPMI 8226 cells", "value": "at least 2 fold"}, {"measurement": "overexpression of apoptosis-related gene CAS7", "setting": "RPMI 8226 cells", "value": "at least 3 fold"}, {"measurement": "overexpression of apoptosis-related gene CASP2", "setting": "RPMI 8226 cells", "value": "at least 2 fold"}, {"measurement": "overexpression of apoptosis-related gene CASP3", "setting": "RPMI 8226 cells", "value": "at least 2 fold"}, {"measurement": "overexpression of apoptosis-related gene DAPK1", "setting": "RPMI 8226 cells", "value": "at least 4 fold"}, {"measurement": "overexpression of apoptosis-related gene FADD", "setting": "RPMI 8226 cells", "value": "at least 2 fold"}, {"measurement": "overexpression of apoptosis-related gene HRK", "setting": "RPMI 8226 cells", "value": "at least 2 fold"}, {"measurement": "overexpression of apoptosis-related gene IGFIR", "setting": "RPMI 8226 cells", "value": "at least 2 fold"}, {"measurement": "overexpression of apoptosis-related gene LTBR", "setting": "RPMI 8226 cells", "value": "at least 2 fold"}, {"measurement": "overexpression of apoptosis-related gene NAIP", "setting": "RPMI 8226 cells", "value": "at least 2 fold"}, {"measurement": "overexpression of apoptosis-related gene NOD1", "setting": "RPMI 8226 cells", "value": "at least 2 fold"}, {"measurement": "overexpression of apoptosis-related gene NOL3", "setting": "RPMI 8226 cells", "value": "at least 2 fold"}, {"measurement": "overexpression of apoptosis-related gene TNF", "setting": "RPMI 8226 cells", "value": "at least 2 fold"}, {"measurement": "overexpression of apoptosis-related gene TNFRF1A", "setting": "RPMI 8226 cells", "value": "at least 2 fold"}, {"measurement": "overexpression of apoptosis-related gene TNFRSF1B", "setting": "RPMI 8226 cells", "value": "at least 2 fold"}, {"measurement": "overexpression of apoptosis-related gene TNFRSF10A", "setting": "RPMI 8226 cells", "value": "at least 2 fold"}, {"measurement": "overexpression of apoptosis-related gene TNFRSF10B", "setting": "RPMI 8226 cells", "value": "at least 2 fold"}, {"measurement": "overexpression of apoptosis-related gene TNFRSF25", "setting": "RPMI 8226 cells", "value": "at least 2 fold"}, {"measurement": "overexpression of apoptosis-related gene TP53", "setting": "RPMI 8226 cells", "value": "at least 2 fold"}, {"measurement": "overexpression of apoptosis-related gene TRADD", "setting": "RPMI 8226 cells", "value": "at least 2 fold"}, {"measurement": "overexpression of apoptosis-related gene XIAP", "setting": "RPMI 8226 cells", "value": "at least 2 fold"}]}]}
